Test results published in patent publication US10086039B2, “Lamin A, an activator of longevity/anti-aging SIRT1 protein” (THE UNIVERSITY OF HONG KONG, priority 2012, dated 2018).

Tested on: NM-associated SIRT1
Experiment: NM association of SIRT1 in BMSCs (subcellular fractionation, Western blotting)
Assay type: cell-based, mouse
Settings: wild-type and Zmpste24−/− BMSCs, different concentrations, compared to untreated controls
Protocol: Cells were fractionated as described (Mendez and Stillman, 2000). Briefly, the cells were suspended in 100 μl ice-cold buffer A (10 mM HEPES, pH 7.9, 10 mM KCl, 1.5 mM MgCl2, 0.34 M sucrose, 10% glycerol, 1 mM DTT, protease inhibitors). After the addition of 0.1% Triton X-100, the cell suspension was mixed gently, incubated on ice for 5 min and centrifuged at 1300×g at 4° C. for 4 min. The supernatant (S1) was transferred to a new tube and clarified by high-speed centrifugation (12000×g, 10 min, 4° C.). The remaining nuclei pellet (P1) was washed once with 100 μl buffer A and then resuspended in 100 μl buffer A supplemented with 1 mM CaCl2 and 2 units of micrococcal nuclease, and incubated at 37° C. for 15 min. The reaction was stopped by adding 1 mM EGTA and the suspension was then centrifuged at 1300×g at 4° C. for 4 min. The resultant pellet was resuspended in 100 μl of buffer B (3 mM EDTA, 0.2 mM EGTA, 1 mM DTT) and centrifuged at 1700×g at 4° C. for 4 min. […]
Western blotting was performed as described previously (Liu et al., 2005). Relative band intensity was measured by IMAGE J® and normalized to corresponding wild-type or untreated controls as indicated. […]

With `Oc1ccc(C=Cc2cc(O)cc(O)c2)cc1` [resveratrol] the “NM-associated SIRT1” value was “increased”.
